Literature values, collected in patent US20030036641A1, “Methods for homology-driven reassembly of nucleic acid sequences” (priority 2001, published 2003).

Tested on: E. coli TG1
Details: E. coli TG1 containing pGJ103 (pI258 ars operon in pUC19), LB ampicillin agar plates

## sodium arsenate
  MIC (minimum inhibitory concentration): 4 µg/mL
